The values below come from PMC9558617 (ACS infectious diseases, 2022).

In brackets after ≈: the same amount, converted by molar mass. Bounds are passed on as bounds.

Holding throughout (assay type): cell-based, Mycobacterium tuberculosis
Test [1] relates to Q112-resistant Mtb strains. Nature of the test: microbe, parasite or virus in culture.
For test [2], the system named is Mtb strain B3 tatA.
Test [3] relates to Mtb strain B1 tatC.
The subject of test [4] is Mtb strain A6 tatB.
In test [5] the test system is Mtb strain B2 tatC.
Test [6] has as its system Mtb strain A3 tatB.

As for `CC1(C)S[C@@H]2[C@H](NC(=O)[C@H](N)c3ccccc3)C(=O)N2[C@H]1C(=O)O` [Ampicillin], in test [1], the “factor of MIC decrease (hypersensitivity) versus wild-type” value (“factor of MIC decrease” for short) was greater than 16 factor. The same molecule returned an MIC in test [1] (Mycobacterium tuberculosis) of 1.6 to 3.1 µM (≈ 0.559 to 1.08 µg/mL).

In the case of `CC(C)/N=c1\cc2n(-c3ccc(Cl)cc3)c3ccccc3nc-2cc1Nc1ccc(Cl)cc1` [Clofazimine], in test [2], the “resistance (MIC increase) versus wild-type” value is 4 fold.

As to `C[C@]1(COc2ccc(N3CCC(Oc4ccc(OC(F)(F)F)cc4)CC3)cc2)Cn2cc([N+](=O)[O-])nc2O1` [Delamanid], the “MIC increase versus wild-type” value in test [1] is reported as 3–12 fold.

For the molecule `C[C@@H](O)[C@H]1C(=O)N2C(C(=O)O)=C(SCCN=CN)C[C@H]12` [Imipenem], the “resistance (MIC increase) versus wild-type” value in test [2] came out at 16 fold.

As to `CO[C@H]1/C=C/O[C@@]2(C)Oc3c(C)c(O)c4c(O)c(c(/C=N/N5CCN(C)CC5)c(O)c4c3C2=O)NC(=O)/C(C)=C\C=C\[C@H](C)[C@H](O)[C@@H](C)[C@@H](O)[C@@H](C)[C@H](OC(C)=O)[C@@H]1C` [Rifampicin], in test [1], the “factor of MIC decrease” value was 3–6 factor.

Take `CN[C@H](CC(C)C)C(=O)N[C@H]1C(=O)N[C@@H](CC(N)=O)C(=O)N[C@H]2C(=O)N[C@H]3C(=O)N[C@H](C(=O)N[C@H](C(=O)O)c4cc(O)cc(O)c4-c4cc3ccc4O)[C@H](O)c3ccc(c(Cl)c3)Oc3cc2cc(c3O[C@@H]2O[C@H](CO)[C@@H](O)[C@H](O)[C@H]2O[C@H]2C[C@](C)(N)[C@H](O)[C@H](C)O2)Oc2ccc(cc2Cl)[C@H]1O` [Vancomycin]: the “factor of MIC decrease” value in test [1] is reported as 4–5 factor.

In the case of Capreomycin, the “MIC B1 tatC” value in test [3] turned out to be 0.78 µM. Also, the “MIC A6 tatB” value in test [4] is 1.2 µM. Besides, the “MIC B3 tatA” value in test [2] came to 0.78 µM. Further, in test [5], the “MIC B2 tatC” value was found to be 1.2 µM. Besides, the “MIC A3 tatB” value in test [6] was determined as 0.78 µM.
